Patent US12502391B2, “Multi-kinase inhibitors of VEGF and TGF beta and uses thereof” (AIVIVA BIOPHARMA, INC., priority 2018, dated 2025)
Like-named read-outs stand apart in the source and are kept apart here. Each block holds one compound with its values, some of them ahead of it.

How the values were obtained:
[1] = Ocular tissue and plasma distribution after topical ocular instillation (LC-MS/MS); assay type: in vivo, New Zealand White rabbits; conditions: male, New Zealand White, rabbit
Description: The objective of this study was to assess the local tolerance and ocular distribution of sorafenib and lenvatinib (0.3% w/w) when administered by topical ocular instillation in the eyes. Five to six male New Zealand White rabbits were used per treatment group. Each right eye received a 35 μL eyedrop of the vehicle, sorafenib (0.3% w/w), or lenvatinib (0.3% w/w) three times daily for 5 days. On Dosing Day 5, the animals were sacrificed and eyes were enucleated, and plasma and the ocular tissues were collected. Tissue and plasma concentrations of the compounds were measured by LC-MS/MS.

[2] = tested on: subretinal fibrosis; assay: Laser-induced subretinal fibrosis model in mice; assay type: in vivo, C57BL/6 mice; conditions: for effect on subretinal fibrosis: approximately 1 μL intravitreally on day of laser application, Days 15 and 35; for neovascular lesion sizes: approximately 1 μL of 1% (w/w) intravitreally on day of laser application
Description: The anti-fibrotic effects of test compounds were also evaluated in a subretinal fibrosis model in C57BL/6 mice. Three to five lesions were generated in the Bruch's membrane of the study eye using laser photocoagulation (75-μm spot size, 0.1-s duration, 90 mW, OcuLight TX 532 nm). Subretinal fibrosis started to form 5-7 days post laser application. Test compounds having certain spectrum of multikinase inhibition activities or vehicle were intravitreally injected on the day of laser application. The dosing concentration of the test compounds was 1% (w/w) of nintedanib and lenvatinib. The control groups were vehicle and mouse VEGF164 antibody. There were 12 mice per treatment group. Approximately, 1 μL each of the test compounds, vehicle, or positive control was injected intravitreally to the right eye of each animal. On Days 15 and 35, the eyes were examined with fluorescein angiography, followed by enucleation. Immunostaining on the dissected choroid was used to assess subretinal fibrosis (e.g., collagen 1, isolectin B4 and/or DAPI). The primary antibodies used were fluorescence conjugated isolectin B4 (FITC-conjugated isolectin B4) and anti-collagen type I antibody. […] Thus, these compounds can be used to treat subretinal fibrosis associated with proliferative retinal diseases.

[3] = tested on: subconjunctival scarring; assay: Bleb survival after glaucoma filtration surgery in rabbit eyes; assay type: in vivo, rabbits
Description: In order to investigate the anti-scarring effect of topically applied test compounds following ocular surgeries, glaucoma filtration surgery was performed on rabbit eyes. Postoperative subconjunctival wound healing is a major cause of late bleb failure after glaucoma filtration surgery in humans. Select multikinase inhibitors were tested for effect on bleb survival over time. Inhibition of subconjunctival fibrosis following surgery will improve bleb survival. Vehicle was used as a negative control and pirfenidone was used a positive control.
A scleral tract was created in the left eyes superiorally by tunneling a beveled 22-gauge intravenous cannula through the sclera, beginning behind the limbus and continuing until the cannula is visible in the anterior chamber. The cannula was flushed with sodium heparin (1000 units) prior to placement. The cannula needle was withdrawn and the cannula advanced beyond the pupillary margin to prevent iris blockage of the tube. The cannula was trimmed approximately 2 mm and secured to the sclera using suture. Both the Tenon's and the conjunctiva were sutured with 9-0 Prolene. Six rabbits were used per group and the left eye of each rabbit underwent glaucoma filtration surgery. The treatment groups include vehicle control, pirfenidone (1%, w/v) as a positive control, sorafenib (0.3%, w/v), and lenvatinib (0.3%, w/v). Eyedrops (35 uL) were topically applied to the eyes following surgery three times day for 30 days. All animals were sacrificed on Day 30.
Bleb was monitored throughout the study. Bleb volumes were measured with the use of calibrated calipers. […] There were differences noted between groups at Day 7, and the majority of blebs were gone by Day 14 through Day 30 indicating bleb failure due to subconjunctival scarring. Results of the vehicle and pirfenidone groups were similar to those reported in the literature (Zhong H et al., Invest Ophthalmol Vis Sci, 52: 3136-3142, 2011).

[4] = tested on: LL37-induced inflammation; assay: Histopathology (inflammation, CD4+ and CD8+ lymphocyte scores) in LL37-induced dermal inflammation model; assay type: in vivo; conditions: mice, single intradermal injection 1.6 mg, LL-37 challenge, 48 hours
Description: (§1) In our study, mice were injected subcutaneously with 40 μl of LL-37 (3.3 mg/mL) to induce inflammatory reactions. Immediately following the LL-37 injection, axitinib, nintedanib, sunitinib, or lenvatinib were individually administered as a single intradermal injection (1.6 mg). LL-37 injection was repeated every 12 hours for a total of 4 injections. Endotoxin-free water and dexamethasone (3 mg/kg by intraperitoneal injection, twice), respectively, were used as negative and positive control groups.
At 48 hours after the initial LL-37 injection, the dorsal skin was photographed, and the severity of skin lesions were scored for redness and measured for areas of involvement.
(§2) Mice were then anaesthetized, and tissue samples of lesion sites were excised and fixed for H&E stainings and immunohistochemical analysis. Markers for inflammation (CD4 and CD8) were determined using specific antibodies. TGF beta levels are measured by mRNA expression using qPCR.
The tissue samples were analyzed for inflammation characteristics. Histopathology endpoints included inflammation, and CD4+ and CD8+T-lymphocyte immunostaining. For inflammation scores, tissues were examined histologically and scored for inflammatory cell infiltrate.

[5] = tested on: TGF-β1 mRNA; assay: TGF-β1 mRNA expression (qPCR) in skin of LL-37-challenged mice; assay type: in vivo; conditions: single intradermal injection 1.6 mg
Description: as §1, §2
The TGFb1 mRNA expression in mice induced with LL37 and treated with lenvatinib was 79% of that challenged with LL37 alone (i.e., without treatment).

[6] = tested on: rabbit ear hypertrophic scar; assay: Histopathology of rabbit ear wounds (neovascularization, fibrosis, re-epithelization); assay type: in vivo, New Zealand white rabbits; parameters: key to Total Score, Treated Mean: aggregate of neovascularization, fibrosis, re-epithelization grades; key to Neovascularization score, Treated Mean / Fibrosis/Collagen score, Treated Mean / Re-epithelization score, Treated Mean: five-step severity grade: minimal, mild, moderate, marked, severe; conditions: rabbit ear wound, intradermal dosing of 1 wt. %; for Total Score, Treated Mean: aggregation of microscopic findings; for Fibrosis/Collagen score, Treated Mean / Neovascularization score, Treated Mean / Re-epithelization score, Treated Mean: five-step severity grading (minimal to severe)
Description: In New Zealand white rabbits, maintained under a surgical plane of anesthesia, trauma stimulation of the skin on the ventral surface of both ears is initiated on Day 1. Trauma sites are evaluated on Days 8, 15, 22, 29, 36, and 43. On days 15 and 29, each site is dosed with test compounds (e.g., 1% w/w, 100 μl) by intradermal or intralesional injections.
At necropsy, each treatment site was harvested and preserved for hematoxylin and […] and Mason's trichrome stainings. Each lesion was examined histologically and graded for neovascularization, fibrosis and re-epithelization using a five-step/severity grading system (minimal, mild, moderate, marked, and severe). The average total score is an aggregation of these microscopic findings relating to an inflammatory response.

concentration at 5 day of dosing ([1]; in vivo, Ocular tissue concentration, Aqueous Humor, Mean): 5.49 ng/g | concentration at 5 day of dosing ([1]; in vivo, Ocular tissue concentration, Choroid, Mean): 38 ng/g | concentration at 5 day of dosing ([1]; in vivo, Ocular tissue concentration, Conjunctiva, Mean): 300 ng/g | concentration at 5 day of dosing ([1]; in vivo, Ocular tissue concentration, Cornea, Mean): 178 ng/g | concentration at 5 day of dosing ([1]; in vivo, Ocular tissue concentration, Iris Ciliary Body, Mean): 18.2 ng/g | concentration at 5 day of dosing ([1]; in vivo, Ocular tissue concentration, Retina, Mean): 23.5 ng/g | concentration at 5 day of dosing ([1]; in vivo, Ocular tissue concentration, Sclera, Mean): 49 ng/g | concentration at 5 day of dosing ([1]; in vivo, Ocular tissue concentration, Vitreous Humor, Mean): 0.619 ng/g | concentration at 5 day of dosing ([1]; in vivo, plasma concentration, mean (±SD)): 0.131 µg/mL
Compound: COc1cc2nccc(Oc3ccc(NC(=O)NC4CC4)c(Cl)c3)c2cc1C(N)=O [lenvatinib]
effect on subretinal fibrosis [2]: therapeutic effects in the treatment of subretinal fibrosis | neovascular lesion sizes [2]: marked reductions in neovascular lesion sizes | bleb survival on Day 7 ([3]; eyedrops 35 uL three times a day, pirfenidone 1% w/v, lenvatinib 0.3% w/v, compared to vehicle and sorafenib groups): kept bleb survival on Day 7 | scores of inflammation (inflammatory cell infiltrate), words [4]: prominent reductions | TGF-β1 mRNA expression among all treatment groups ([5]; LL-37 challenge): lowest TGF-β1 mRNA expression | TGFb1 mRNA expression relative to LL37 alone (without treatment) ([5]; LL-37 every 12 hours x4, 48 hours after initial LL-37 injection): 79%

Compound: COC(=O)c1ccc2c(c1)NC(=O)/C2=C(\Nc1ccc(N(C)C(=O)CN2CCN(C)CC2)cc1)c1ccccc1 [nintedanib]
effect on subretinal fibrosis [2]: therapeutic effects in the treatment of subretinal fibrosis | neovascular lesion sizes [2]: marked reductions in neovascular lesion sizes | scores of inflammation (inflammatory cell infiltrate), words [4]: prominent reductions | angiogenesis/neovascularization and fibrosis by histopathology versus untreated wounds (words) [6]: decreased angiogenesis and fibrosis | average total score of test wounds, fold lower than untreated wounds [6]: about 1.33 fold | Total Score, Treated Mean [6]: 4.5 | Fibrosis/Collagen score, Treated Mean [6]: 3 | Neovascularization score, Treated Mean [6]: 1 | Re-epithelization score, Treated Mean [6]: 0.5 | angiogenesis/neovascularization and fibrosis by histopathology versus untreated wounds (words) ([6]; listed as Nintedanib): much less neovascularization and about the same fibrosis as untreated wounds

Compound: CNC(=O)c1cc(Oc2ccc(NC(=O)Nc3ccc(Cl)c(C(F)(F)F)c3)cc2)ccn1 [sorafenib]
concentration at 5 day of dosing ([1]; aqueous humor, topical, 0.3 % w/w (35 μL eyedrop), rabbit eyes, topical instillation of 0.3% three times daily for five days, N=6, read-out: Ocular tissue concentration, Aqueous Humor, Mean): 0 ng/g | concentration at 5 day of dosing ([1]; choroid, topical, 0.3 % w/w (35 μL eyedrop), rabbit eyes, topical instillation of 0.3% three times daily for five days, N=6, read-out: Ocular tissue concentration, Choroid, Mean): 8.19 ng/g | concentration at 5 day of dosing ([1]; conjunctiva, topical, 0.3 % w/w (35 μL eyedrop), rabbit eyes, topical instillation of 0.3% three times daily for five days, N=6, read-out: Ocular tissue concentration, Conjunctiva, Mean): 860 ng/g | concentration at 5 day of dosing ([1]; cornea, topical, 0.3 % w/w (35 μL eyedrop), rabbit eyes, topical instillation of 0.3% three times daily for five days, N=6, read-out: Ocular tissue concentration, Cornea, Mean): 131 ng/g | concentration at 5 day of dosing ([1]; iris ciliary body, topical, 0.3 % w/w (35 μL eyedrop), rabbit eyes, topical instillation of 0.3% three times daily for five days, N=6, read-out: Ocular tissue concentration, Iris Ciliary Body, Mean): 3.34 ng/g | concentration at 5 day of dosing ([1]; plasma, topical, 0.3 % w/w (35 μL eyedrop), 0.3% w/w eyedrop 35 μL three times daily, Day 5 of dosing, read-out: plasma concentration, mean (±SD)): 0.00509 µg/mL | concentration at 5 day of dosing ([1]; retina, topical, 0.3 % w/w (35 μL eyedrop), rabbit eyes, topical instillation of 0.3% three times daily for five days, N=6, read-out: Ocular tissue concentration, Retina, Mean): 17.4 ng/g | concentration at 5 day of dosing ([1]; sclera, topical, 0.3 % w/w (35 μL eyedrop), rabbit eyes, topical instillation of 0.3% three times daily for five days, N=6, read-out: Ocular tissue concentration, Sclera, Mean): 16.4 ng/g | concentration at 5 day of dosing ([1]; vitreous humor, topical, 0.3 % w/w (35 μL eyedrop), rabbit eyes, topical instillation of 0.3% three times daily for five days, N=6, read-out: Ocular tissue concentration, Vitreous Humor, Mean): 0.11 ng/g | bleb failure on Day 14 ([3]; 0.3% w/v eyedrops three times a day, 6 eyes per group): all of the sorafenib treated eyes demonstrated bleb failure | angiogenesis/neovascularization and fibrosis by histopathology versus untreated wounds (words) [6]: do not show any reduction in angiogenesis | Total Score, Treated Mean [6]: 5.8 | Fibrosis/Collagen score, Treated Mean [6]: 2.5 | Neovascularization score, Treated Mean [6]: 3 | Re-epithelization score, Treated Mean [6]: 0.3 | angiogenesis/neovascularization and fibrosis by histopathology versus untreated wounds (words) ([6]; listed as Sorafenib): slightly increased neovascularization, and similar or slightly increased fibrosis
